Experimental data from US12163111B2 (priority 2017, dated 2024).
Where two headings read alike, the source gives them in different places.

Key:
[1] = Description: Various materials used to manufacture a cell culture device have been tested. One material used for the cell culture device, PEEK, is a strong plastic polymer that is resistant to wear. PEEK is advantageous in drug testing because it is non-absorbent as opposed to, for example, the commonly used poly(dimethylsiloxane) (PDMS), which is known to retain small hydrophobic molecules, such as nicotine. PEEK has been found not to retain nicotine or NNK, another small hydrophobic molecule. Therefore, the cell culture device is suitable for the testing of drug effects on the tissues housed within the cell culture device without risk of the drug concentration (or concentration of its metabolites) being altered by the material.
PEEK has the advantage of not being absorbent towards small molecules. […] This is important since materials used for commercially available plates such as PDMS are known to trap small hydrophobic molecules.

[2] = PDMS plate, 8 hours incubation at 4° C.

Compound | absorbance of PEEK towards the molecule (trapping by the material) [1] | amount of nicotine remaining in the plate ([1]; 8 h) | amount of nicotine remaining in the plate [2]
CN(CCCC(=O)c1cccnc1)N=O [NNK, 4-(methylnitrosamino)-1-(3-pyridyl)-1-butanone] | not trapped by the material | – | –
CN1CCCC1c1cccnc1 (stereo not shown) [nicotine] | not trapped by the material | about 100% | about 35%
